Data reported in patent US9708338B2, “Aromatic heterocyclylamine derivative having TRPV4-inhibiting activity” (Shionogi & Co., Ltd., priority 2013, dated 2017).

molecular target: T1, human TRPV4 (Homo sapiens, UniProt Q9HBA0); assay: Test Example 2 Measurement of TRPV4 inhibitory activity (IC50 value); assay type: cell-based; settings: CHO-K1 cells stably expressing human TRPV4; DMEM 10% FBS, 5000 cells/well; final 0.15 μmol/L 4α-PDD
T1 construct: expressed in transfected cells; host or cells: CHO-K1
Procedure: (§1) For each compound, TRPV4 inhibitory activity was measured using cells. (Method) TRPV4 inhibitory activity of the compound was evaluated in accordance with the following procedure.
(§2) (1) The TRPV4 inhibitory activity was measured using CHO-K1 cells stably expressing human TRPV4.
(2) In the day before the experimental day, frozen cell were thawed and washed with the culture medium (DMEM, 10% FBS, 2 mmol/L GlutaMax, 50 unit Penicillin, 50 μg/mL Streptomycin, 0.1 mmol/L Non-Essential Amino Acids, 25 mmol/L HEPES). Then cells were suspended in the culture medium. (3) The 384-well plates which hTRPV4/CHO cells were seeded at densities of 5000 cells/well in the culture medium and cultured in a CO2 incubator in the presence of 5% CO2 at 37° C. for overnight was used as assay plates. (4) The assay plate was washed with assay buffer (Hanks, 20 mmol/L HEPES, 2.5 mmol/L probenecid, pH7.4), and the buffer were remained at 20 μL/well. (5) 10 μl of dye loading buffer (3 μmol/L Fluo 4-AM, 0.03% Pluronic F-127/assay buffer) was added to each well, then the assay plate was incubated in a CO2 incubator in the presence of 5% CO2 at 37° C. for one hour (final 1 μmol/L Fluo4-AM). (6) The assay plate was washed with the assay buffer, and the buffers were remained at 20 μL/well. Then the assay plate was incubated for 10 min at room temperature. (7) 20 μL/well of diluted compound solution was dispensed to each well in the compound plate, and mixed with built-in Pipette and Mixer of the Fluorescence analysis system FLIPR TETRA (Molecular devices). (8) After incubation for 5 min, 20 μL/well of 4α-PDD solution were applied to each well of assay plate and mixed with the FLIPR TETRA (final 0.15 μmol/L 4α-PDD). (9) The fluorescent intensity was measured with FLIPR TETRA system for 5 min from the point of time addition the […], at Ex 470-495 nm, Em 515-575 nm wavelength.
(§3) In addition, TRPV4 inhibitory activity (IC50 value) of a compound was evaluated according to the following procedure.
(§4) (10) In the presence of the compound, the difference between maximal and minimal of fluorescent intensity value for 5 min from just before addition of 4α-PDD solution was calculated, and it was referred as Max−Min value. Max−Min value of the above compound A at 1 μmol/L was defined as 100% inhibitory activity, Max−Min value in the absence of the compound was defined as 0% inhibitory activity. The TRPV4 inhibitory activity of the compound was calculated by the following formula. Inhibition ratio=(1−(Max−Min value of the compound−100% inhibitory activity)/(0% inhibitory activity−100% inhibitory activity))×100 (11) Inhibitory activity was calculated at 10 points with three fold serial dilution, in the final concentration of the compound from 10 μmol/L to 0.5 nmol/L, the IC50 value (nmol/L) was calculated by logistic approximation method. (Result)

T1 sequence (Q9HBA0 whole entry): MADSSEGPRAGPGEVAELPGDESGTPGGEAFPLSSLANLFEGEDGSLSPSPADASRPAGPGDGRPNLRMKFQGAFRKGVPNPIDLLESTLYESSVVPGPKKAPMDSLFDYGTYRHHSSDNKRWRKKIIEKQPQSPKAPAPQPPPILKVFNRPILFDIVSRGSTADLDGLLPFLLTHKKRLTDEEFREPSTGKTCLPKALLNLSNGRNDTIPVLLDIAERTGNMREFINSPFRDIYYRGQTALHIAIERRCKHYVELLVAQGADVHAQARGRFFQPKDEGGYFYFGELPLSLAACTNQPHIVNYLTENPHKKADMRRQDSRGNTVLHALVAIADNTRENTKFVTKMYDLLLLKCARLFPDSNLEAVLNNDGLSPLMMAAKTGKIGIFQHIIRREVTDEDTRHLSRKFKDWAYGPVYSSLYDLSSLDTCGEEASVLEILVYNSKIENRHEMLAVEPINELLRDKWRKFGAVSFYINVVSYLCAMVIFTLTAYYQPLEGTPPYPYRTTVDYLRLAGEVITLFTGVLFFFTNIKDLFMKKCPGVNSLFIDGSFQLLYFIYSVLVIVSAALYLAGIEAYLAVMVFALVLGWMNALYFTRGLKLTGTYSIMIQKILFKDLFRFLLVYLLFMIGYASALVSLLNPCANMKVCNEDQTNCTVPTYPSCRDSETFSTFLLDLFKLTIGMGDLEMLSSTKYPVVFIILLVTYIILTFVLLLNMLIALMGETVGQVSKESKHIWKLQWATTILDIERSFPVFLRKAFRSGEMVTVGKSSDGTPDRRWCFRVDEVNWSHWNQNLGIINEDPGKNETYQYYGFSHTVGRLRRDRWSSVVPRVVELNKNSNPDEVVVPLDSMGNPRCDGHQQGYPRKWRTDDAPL

Compound	IC50 [nM]
CCN(CC)C(=O)N1C[C@H]2CC[C@@H](C1)N2C(=O)c1ccc(Nc2nc(-c3sc(C)nc3C)cs2)nc1 [Compound I-592]	3.9
Cc1nc(C)c(-c2csc(Nc3ccc(C(=O)N4[C@@H]5CC[C@H]4COC5)c(F)n3)n2)s1 [Compound I-744]	4.2
Cc1nc(C)c(-c2csc(Nc3ccc(C(=O)N4[C@@H]5CC[C@H]4COC5)cn3)n2)s1 [Compound I-662]	6.7
Cc1nc(C)c(-c2csc(Nc3ccc(C(=O)N4[C@@H]5CC[C@H]4CSC5)cn3)n2)s1 [Compound I-843]	2.6
CO[C@H]1C[C@H]2CC[C@@H](C1)N2C(=O)c1ccc(Nc2nc(-c3sc(C)nc3C)cs2)nc1 [Compound I-719]	1.6
Cc1nc(C)c(-c2csc(Nc3ccc(CN4[C@@H]5CC[C@H]4COC5)cn3)n2)s1 [Compound I-799]	6.3
Cc1nc(C)c(-c2csc(Nc3ccc(C(=O)N4C[C@H]5CC[C@@H](C4)O5)cn3)n2)s1 [Compound I-703]	13
Cc1nc(C)c(-c2csc(Nc3ccc(C(=O)N4CCOc5ccccc54)cn3)n2)s1 [Compound I-831]	2.9

tested on: not listed separately; assay: Test Example 7 Metabolism stability test; assay type: in vitro ADME; settings: 0.5 μmol/L of test compound, human liver microsomes 0.5 mg protein/mL, 37° C.
Procedure: Using commercially available pooled human hepatic microsomes, a compound of the present invention was reacted for a constant time, and a remaining rate was calculated by comparing a reacted sample and an unreacted sample, thereby, a degree of metabolism in liver was assessed.
A reaction was performed (oxidative reaction) at 37° C. for 0 minute or 30 minutes in the presence of 1 mmol/L NADPH in 0.2 mL of a buffer (50 mmol/L Tris-HCl pH 7.4, 150 mmol/L potassium chloride, 10 mmol/L magnesium chloride) containing 0.5 mg protein/mL of human liver microsomes. After the reaction, 50 μL of the reaction solution was added to 100 μL of a methanol/acetonitrile=1/1 (v/v), mixed and centrifuged at 3000 rpm for 15 minutes. The compound of the present invention in the supernatant was quantified by LC/MS/MS, and a remaining amount of the compound of the present invention after the reaction was calculated, letting a compound amount at 0 minute reaction time to be 100%. Hydrolysis reaction was performed in the absence of NADPH and glucuronidation reaction was in the presence of 5 mmol/L UDP-glucuronic acid in place of NADPH, followed by similar operations. (Result) % inhibition was shown at 0.5 μmol/L of test compound.

Percent of compound remaining after 30 min incubation [%]	Compound
106	CC(O)c1nc(C(O)CO)c(-c2csc(Nc3ccc(CNc4ccc(Cl)cc4F)cn3)n2)s1 (centres unmarked) [Compound I-69]

molecular target: T1, human TRPV4; assay: Test Example 1 Measurement of TRPV4 inhibitory activity (IC50 value); assay type: cell-based; settings: CHO-K1 cells stably expressing human TRPV4; Fluo 4-AM, FLIPR TETRA; final 1 μmol/L 4α-PDD
Procedure: as §1, §2
(2) In the day before the experimental day, frozen cell were thawed and washed with the culture medium (MEM-α, 10% FBS, 2 mmol/L GlutaMax, 50 unit Penicillin, 50 μg/mL Streptomycin, 20 mmol/L HEPES). Then cells were suspended in the culture medium.
(3) The 384-well plates which hTRPV4/CHO cells were seeded at densities of 4000 cells/well in the culture medium and cultured in a CO2 incubator in the presence of 5% CO2 at 37° C. for overnight was used as assay plates.
(4) The assay plate was washed with assay buffer (Hanks, 20 mmol/L HEPES, 2.5 mmol/L probenecid, pH 7.4), and the buffer were remained at 20 μL/well.
(5) 10 μl of dye loading buffer (9 μmol/L Fluo 4-AM, 0.09% Pluronic F-127/assay buffer) was added to each well, then the assay plate was incubated in a CO2 incubator in the presence of 5% CO2 at 37° C. for one hour (final 3 μmol/L Fluo4-AM).
(6) The assay plate was washed with the assay buffer, and the buffers were remained at 20 μL/well. Then the assay plate was incubated for 10 min at room temperature.
(7) 20 μL/well of diluted compound solution was dispensed to each well in the compound plate, and mixed with built-in Pipette and Mixer of the Fluorescence analysis system FLIPR TETRA (Molecular devices).
(8) After incubation for 5 min, 20 μL/well of 4α-PDD solution were applied to each well of assay plate and mixed with the FLIPR TETRA (final 1 μmol/L 4α-PDD).
(9) The fluorescent intensity was measured with FLIPR TETRA system for 5 min from the point of time addition the compound solution, at Ex 470-495 nm, Em 515-575 nm wavelength.
as §3
as §4, with “the” for “the above”, “activity))×100” for “activity))×100 (11) Inhibitory activity was calculated at 10 points with three fold serial dilution, in the final concentration of the compound from 10 μmol/L to 0.5 nmol/L, the IC50 value (nmol/L) was calculated by logistic approximation method. (Result)”
Herein, the compound A is the compound I-186 described in PCT/JP2013/058722.
(11) Inhibitory activity was calculated at 10 points with three fold serial dilution, in the final concentration of the compound from 10 μmol/L to 0.5 nmol/L, the IC50 value (nmol/L) was calculated by logistic approximation method.

IC50 [nM]	Compound
3.3	Cc1nc(C)c(-c2csc(Nc3ccc(C(=O)NC(C)(C)C(F)(F)F)cn3)n2)s1 [Compound I-274]
24	Cc1nc(C)c(-c2csc(Nc3ccc(OCc4ccc(Cl)cc4)cn3)n2)s1 [Compound I-312]
14	Cc1nc(C)c(-c2csc(Nc3ccc(C(=O)Nc4cccnc4)cn3)n2)s1 [Compound I-257]
2.5	Cc1nc(C)c(-c2csc(Nc3ccc(CN(CC(C)C)c4ccc(Cl)cc4F)cn3)n2)s1 [Compound I-200]
14	CC(O)c1nc(CC#N)c(-c2csc(Nc3ccc(CNc4ccc(Cl)cc4F)cn3)n2)s1 (centres unmarked) [Compound I-132]
6.8	Cc1nc(C(C)O)sc1-c1csc(Nc2ccc(C(=O)Nc3ccc(C#N)cc3F)cn2)n1 (centres unmarked) [Compound I-134]
30	Cc1nc(C(C)O)sc1-c1csc(Nc2ccc(CCNc3ccc(Cl)cc3F)cn2)n1 (centres unmarked) [Compound I-150]
42	Cc1nc(C(C)O)sc1-c1csc(Nc2ccc(OC(F)(F)F)cn2)n1 (centres unmarked) [Compound I-140]
4	COCCN(Cc1ccc(Nc2nc(-c3sc(C)nc3C)cs2)nc1)c1ccc(Cl)cc1F [Compound I-184]
26	Cc1nc(C)c(-c2csc(Nc3ccc(C(=O)Nc4ccc(Oc5ccccc5)cc4)cn3)n2)s1 [Compound I-270]
1.7	Cc1nc(C)c(-c2csc(Nc3ccc(CNC4(C(F)(F)F)CCCC4)cn3)n2)s1 [Compound I-228]
6.4	Cc1nc(C)c(-c2csc(Nc3ccc(C(C)Nc4ccc(Cl)cc4)cn3)n2)s1 (centres unmarked) [Compound I-188]
27	CC(O)c1nc(CCO)c(-c2csc(Nc3ccc(CNc4ccc(Cl)cc4F)cn3)n2)s1 (centres unmarked) [Compound I-79]

The remaining lines, values behind:

Compound	IC50 [nM]
Cc1nc(C)c(-c2c[nH]c(Nc3ccc(CNc4ccc(Cl)cc4F)cn3)n2)s1 [Compound I-41]	42
CC(=O)N(Cc1ccc(Nc2nc(-c3sc(C)nc3C)cs2)nc1)c1ccc(Cl)cc1F [Compound I-49]	8.6
Cc1nc(C)c(-c2csc(Nc3ccc(C(=O)Cc4ccc(Cl)cc4)cn3)n2)s1 [Compound I-13]	6.4
Cc1nc([C@H](C)O)sc1-c1csc(Nc2ccc3c(n2)CCCC3Nc2ccc(Cl)cc2F)n1 (some centres unmarked) [Compound I-10]	14
CO[C@H]1C[C@H]2CC[C@@H](C1)N2C(=O)c1ccc(Nc2nc(-c3sc(C(N)=O)nc3C)cs2)nc1 [Compound I-118]	9.1
Cc1nc(C)c(-c2csc(Nc3ccc(S(=O)(=O)Cc4ccc(Cl)cc4)cn3)n2)s1 [Compound I-17]	37
Cc1nc(C)c(-c2csc(Nc3ccc(CNc4ccc(Cl)cc4F)cn3)n2)o1 [Compound I-43]	39
Cc1nc(C)c(-c2csc(Nc3ccc(/C=C/c4ccc(Cl)cc4)cn3)n2)s1 [Compound I-54]	27
Cc1nc(C(C)O)sc1-c1csc(Nc2ccc(CCOc3ccc(Cl)cc3F)cn2)n1 (centres unmarked) [Compound I-6]	52
Cc1nc([C@H](C)O)sc1-c1csc(Nc2ccc(COC(C(F)(F)F)C(F)(F)F)cn2)n1 [Compound I-45]	8.1
